Measurements from patent US20070249582A1, “Method of Treating Substance Abuse with Quetiapine” (ASTRAZENECA AB, priority 2001, published 2007).

Test system: outpatients with bipolar disorder and cocaine dependence
[1] = baseline to exit, all evaluable patients
[2] = baseline to week 12, LOCF, p<0.003

OCCOCCN1CCN(C2=Nc3ccccc3Sc3ccccc32)CC1 [Quetiapine, 11-(4-[2-(2-hydroxyethoxy)ethyl]-1-piperazinyl)dibenzo[b,f][1.4]-thiazepine]
Mean amount spent on drugs at baseline (8 completers, baseline, past week): 80.8±105.4 $ | Mean amount spent on drugs at exit (8 completers, week 12, past week): 10.0±17.7 $ | Reduction in amount spent on drugs (8 subjects who completed all 12 weeks, p=0.043): 87% | Dollar amount spent on drugs [1]: did not decrease significantly | Percent of positive urine samples [1]: did not decrease significantly | Brief Psychiatric Rating Scale (BPRS) score [2]: improved significantly | Young Mania Rating Scale (YMRS) score [2]: improved significantly | Hamilton Depression Scale (HDRS) score (baseline to week 12, LOCF, p<0.003, mean maximum dose 312.5±95.6 mg/day): improved significantly | Cravings as measured by the cocaine craving questionnaire (CCQ) (baseline to week 12, p<0.05): significantly decreased | Tolerability (in vivo): well tolerated | Withdrawals because of side effects (in vivo): no subjects withdrawing because of side effects
